Data reported in PMC12044326 (Clinical Pharmacology in Drug Development, 2025).
pIC50, pKi: −log10 of the molar value.

Assays:
OATP1B1 = biological target: T1, OATP1B1 (Homo sapiens, UniProt Q9Y6L6)
T1 sequence (Q9Y6L6 1-691): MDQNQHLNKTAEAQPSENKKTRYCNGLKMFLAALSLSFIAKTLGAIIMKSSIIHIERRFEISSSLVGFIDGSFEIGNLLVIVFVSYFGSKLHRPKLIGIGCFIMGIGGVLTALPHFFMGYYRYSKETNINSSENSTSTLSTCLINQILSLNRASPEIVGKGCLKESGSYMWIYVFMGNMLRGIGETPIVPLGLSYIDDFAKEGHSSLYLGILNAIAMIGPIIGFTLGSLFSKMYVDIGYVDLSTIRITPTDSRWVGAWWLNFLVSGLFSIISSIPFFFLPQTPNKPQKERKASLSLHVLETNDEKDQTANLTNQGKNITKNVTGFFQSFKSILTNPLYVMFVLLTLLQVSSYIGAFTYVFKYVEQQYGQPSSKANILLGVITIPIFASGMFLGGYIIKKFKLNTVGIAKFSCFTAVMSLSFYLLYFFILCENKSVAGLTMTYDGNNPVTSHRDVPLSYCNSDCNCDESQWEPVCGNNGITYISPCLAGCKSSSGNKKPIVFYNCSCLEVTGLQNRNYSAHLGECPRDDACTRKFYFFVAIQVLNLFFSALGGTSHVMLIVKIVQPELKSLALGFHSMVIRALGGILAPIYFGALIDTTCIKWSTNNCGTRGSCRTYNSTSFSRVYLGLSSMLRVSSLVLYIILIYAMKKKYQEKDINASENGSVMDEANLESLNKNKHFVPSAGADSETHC

UGT1A9 [1] = biological target: T2, UGT1A9 (Homo sapiens, UniProt O60656); settings: both, 20 min, pH 7.4
T2 sequence (O60656 26-530): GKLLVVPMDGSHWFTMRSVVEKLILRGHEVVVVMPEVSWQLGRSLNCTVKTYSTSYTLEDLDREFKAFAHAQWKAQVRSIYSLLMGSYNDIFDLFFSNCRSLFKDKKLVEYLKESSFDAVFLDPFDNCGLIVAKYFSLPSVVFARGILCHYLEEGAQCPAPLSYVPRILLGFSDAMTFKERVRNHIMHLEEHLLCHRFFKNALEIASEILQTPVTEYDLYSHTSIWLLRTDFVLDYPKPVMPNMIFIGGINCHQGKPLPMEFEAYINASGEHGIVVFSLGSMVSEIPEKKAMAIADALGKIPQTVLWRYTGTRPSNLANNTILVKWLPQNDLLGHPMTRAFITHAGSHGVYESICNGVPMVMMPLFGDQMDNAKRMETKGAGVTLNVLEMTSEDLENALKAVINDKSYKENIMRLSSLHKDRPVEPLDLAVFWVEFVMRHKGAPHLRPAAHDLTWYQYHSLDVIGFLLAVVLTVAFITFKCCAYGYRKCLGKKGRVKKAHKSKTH

[2] = test system: cholesterol 24‐hydroxylase (CH24H); settings: 100, 200, and 300 mg BID, cited from earlier work
CYP1A2 = settings: hepatocytes
Protocol: respectively; XenoTech) were treated once daily for 3 consecutive days and cultured according
to previously described methods.2-4 Each culture well was treated with supplemented modified Chee's medium (0.2 mL) containing 0.1% v/v d imethylsulfoxide (DM SO ; vehicle control),
μmol/L) or 1 of 3 known human CYP enzyme inducers (omeprazole 50 μmol/L, phenobarbital
Cultures were visualized with a
representative well from each treatment group was photographed with a PAXcam 5 (MIS, Inc.
Villa Park, IL, USA) digital camera to document morphological integrity.
β-mercaptoethanol (1:100), and the cell lysates were stored at −80°C. For each hepatocyte preparation, media from 3 wells per treatment group were aspirated, and 250 μL buf f er RLT was added to each well. The cell lysates were mixed by shaking (10 minutes at 800 rpm) and total RNA was isolated with a MagMAX-96 (Ambion/ Thermo Fisher Scientific) for Microarrays Kit using the RNeasy Mini Kit (Qiagen Inc., Germantown, MD, USA). The analysis of RNA integrity was carried out with the RNA 6000 Nano Assay Kit on an Agilent 2100 Bioanalyzer (Agilent Technologies, Inc., Santa Clara, CA, USA). […]
prepared samples were stored at −20°C prior to analysis by quantitative real-time (qRT)- […]

CYP3A4 = settings: predicted by combining in vitro phenotyping and human ADME data; cited from earlier work
P‐gp = biological target: T3, P‐gp (Homo sapiens, UniProt P08183); assay type: in vitro ADME
T3 construct: Caco-2 cells were obtained from American Type Culture Collection; host or cells: Caco-2 cell monolayers
T3 sequence (P08183 whole entry): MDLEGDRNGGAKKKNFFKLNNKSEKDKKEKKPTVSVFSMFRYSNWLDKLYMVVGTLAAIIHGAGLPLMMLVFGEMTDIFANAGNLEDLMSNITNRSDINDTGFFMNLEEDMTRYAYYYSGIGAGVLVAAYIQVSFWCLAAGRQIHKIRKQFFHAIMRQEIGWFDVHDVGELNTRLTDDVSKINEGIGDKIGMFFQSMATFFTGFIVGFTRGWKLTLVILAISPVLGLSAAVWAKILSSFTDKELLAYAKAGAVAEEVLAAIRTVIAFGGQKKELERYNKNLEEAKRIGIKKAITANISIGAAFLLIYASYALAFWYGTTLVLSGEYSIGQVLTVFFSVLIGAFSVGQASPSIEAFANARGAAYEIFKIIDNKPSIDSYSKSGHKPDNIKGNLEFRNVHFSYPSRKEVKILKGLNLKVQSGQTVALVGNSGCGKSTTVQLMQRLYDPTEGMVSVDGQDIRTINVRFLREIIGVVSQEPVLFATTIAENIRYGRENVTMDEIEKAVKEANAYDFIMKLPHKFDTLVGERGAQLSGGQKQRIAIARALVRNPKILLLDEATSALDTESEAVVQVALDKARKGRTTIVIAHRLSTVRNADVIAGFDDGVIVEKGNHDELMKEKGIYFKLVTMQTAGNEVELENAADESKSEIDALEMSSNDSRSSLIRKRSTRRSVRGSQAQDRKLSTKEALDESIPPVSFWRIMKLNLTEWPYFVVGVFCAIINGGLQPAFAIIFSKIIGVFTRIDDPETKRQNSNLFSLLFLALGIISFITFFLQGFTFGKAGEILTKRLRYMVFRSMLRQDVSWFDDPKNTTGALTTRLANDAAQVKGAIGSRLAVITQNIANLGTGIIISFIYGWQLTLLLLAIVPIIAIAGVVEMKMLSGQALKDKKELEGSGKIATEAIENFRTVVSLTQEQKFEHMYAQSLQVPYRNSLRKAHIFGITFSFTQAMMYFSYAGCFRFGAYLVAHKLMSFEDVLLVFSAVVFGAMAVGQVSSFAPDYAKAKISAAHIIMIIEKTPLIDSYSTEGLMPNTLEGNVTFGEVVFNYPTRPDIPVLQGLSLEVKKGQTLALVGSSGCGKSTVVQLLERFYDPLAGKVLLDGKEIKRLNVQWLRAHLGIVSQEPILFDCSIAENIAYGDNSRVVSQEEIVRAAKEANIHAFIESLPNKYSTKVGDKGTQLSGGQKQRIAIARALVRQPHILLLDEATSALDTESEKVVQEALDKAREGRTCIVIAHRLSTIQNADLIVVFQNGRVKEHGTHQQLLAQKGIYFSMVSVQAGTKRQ
Protocol: (§1) Prior to the experiments,
(§2) The cells were cultured at […]
(§3) measuring the trans-epithelial electrical resistance (TEER) value. The TEER values of cell […]
(§4) The volumes of the replaced […]
(§5) shaker at 37°C until use.
(§6) Apical to Basal Transport (A to B).
(§7) (soticlestat or quinidine) were added.
(§8) After incubation for 1 hour, 100 μL […]
(§9) radioactivity using an LSC. […]
(§10) collected and measured for the radioactivity using an LSC.
(§11) Basal to Apical Transport (B to A).
(§12) (soticlestat or quinidine) were added. […] Then […]
(§13) cells were incubated at 37°C.
(§14) HBSS solution were added to the apical side.

P‐glycoprotein (P‐gp) = biological target: T4, P‐glycoprotein (P‐gp) (Homo sapiens, UniProt P08183); assay type: in vitro ADME
T4 construct: Caco-2 cells were obtained from American Type Culture Collection; host or cells: Caco-2 cell monolayers
T4 sequence (P08183 whole entry): as above
Protocol: as §1, §2, §3, §4, §5, §6, §7, §8, §9, §10, §11, §12, §13, §14

UGT1A9 [3] = biological target: T2, UGT1A9; set-up: with alamethicin-pretreated HLMs (0.5 mg/mL); tissue Sekisui-XenoTech; host or cells: pooled human liver microsomes (200 donors); settings: predicted by combining in vitro phenotyping and human ADME data; cited from earlier work
OATP1B3 = biological target: T5, OATP1B3 (Homo sapiens, UniProt Q9NPD5)
T5 sequence (Q9NPD5 1-702): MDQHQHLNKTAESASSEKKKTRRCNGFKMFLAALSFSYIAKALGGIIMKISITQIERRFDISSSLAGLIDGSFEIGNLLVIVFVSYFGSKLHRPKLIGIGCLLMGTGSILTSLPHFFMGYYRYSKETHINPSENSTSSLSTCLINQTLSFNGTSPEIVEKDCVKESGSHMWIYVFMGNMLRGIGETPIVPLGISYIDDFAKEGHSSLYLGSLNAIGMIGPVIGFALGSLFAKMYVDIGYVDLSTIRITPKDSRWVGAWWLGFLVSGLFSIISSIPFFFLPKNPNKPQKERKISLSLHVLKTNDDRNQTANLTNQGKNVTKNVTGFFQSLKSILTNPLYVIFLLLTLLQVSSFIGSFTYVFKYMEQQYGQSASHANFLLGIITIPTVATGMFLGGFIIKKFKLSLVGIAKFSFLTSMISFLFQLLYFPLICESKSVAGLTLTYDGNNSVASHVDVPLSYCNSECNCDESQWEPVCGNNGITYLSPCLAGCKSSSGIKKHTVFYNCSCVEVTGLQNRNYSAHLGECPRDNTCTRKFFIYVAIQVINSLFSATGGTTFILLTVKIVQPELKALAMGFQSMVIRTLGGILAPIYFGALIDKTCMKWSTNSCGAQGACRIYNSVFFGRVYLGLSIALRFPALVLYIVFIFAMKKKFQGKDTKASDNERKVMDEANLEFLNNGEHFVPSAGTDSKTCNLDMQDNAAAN

[4] = cited from earlier work
[5] = 300 mg single oral dose, geometric mean, clinical ADME study, ref 5 of supplement

O=C(c1cccnc1-c1ccncc1)N1CCC(O)(Cc2ccccc2)CC1 [Soticlestat]
substrate for OATP1B1 (OATP1B1): not a substrate | time‐ or metabolism‐dependent inhibition (major CYP enzymes): did not exhibit time‐ or metabolism‐dependent inhibition | fm of total UGT mediated glucuronidation via UGT1A9 (UGT1A9 [1]): ~10% | 24HC reduction ([2]; steady state): ≥ 60% | steady‐state enzyme occupancy [2]: ≥ 65% | induction of CYP1A2 (CYP1A2): nor did soticlestat induce | fm by CYP3A (CYP3A4): 9.5% | substrate for P‐gp (P‐gp): not a substrate | pIC50 (P‐glycoprotein (P‐gp)): 4.09 | pKi (P‐glycoprotein (P‐gp)): 4.10 | fm by UGT1A9 (UGT1A9 [3]): 9.3% | substrate for OATP1B3 (OATP1B3): not a substrate | AUC0-inf observed [4, 5]: 1294 ng·h/mL | Cmax observed [4, 5]: 995 ng/mL | tmax observed ([4]; 300 mg single oral dose, median, clinical ADME study, ref 5 of supplement): 31.8 min | CLIV (mean IV clearance) ([4]; IV microdose [14C] soticlestat 50 µg with oral 300 mg): 28.7 L/h | CYP contribution to clearance ([4]; human radiolabeled ADME study): 9.5% | cleared by UGT metabolism ([4]; human radiolabeled ADME study): 90.5% | CLR (mean renal clearance) ([4]; single oral dose [14C] soticlestat 300 mg, healthy volunteers): 0.22 L/h
